In patent US12062422B2, “System, method and computer-accessible medium for use of heavy water as a probe for imaging metabolic activities” (The Trustees of Columbia University in the City of New York, priority 2018, dated 2024):

Columns and labels:
mice = test: Injection of D-PA into mice, SRS imaging of CDL signal; format: in vivo; conditions: intraperitoneal bolus injection of 96 μmol
Protocol: To inject D-labeled palmitic acids (“D-Pas”) intravenously, mice were anesthetized by isoflurane, and one of the carotid arteries was cannulated for the implantation of a catheter. A syringe filled with 4 mM D-PA dissolved in mammalian Ringer's solution was then connected with the implanted catheter, and D-PA solution was perfused at 0.001 ml/min using a syringe pump (e.g., AL-1000, WPI). The administration lasted for 8 hours every day for three consecutive days before the mice were sacrificed and their organs were harvested, fixed, sectioned, and imaged by SRS. To inject D-PA intraperitoneally, 0.16 ml of 600 mM D-PA emulsion was injected into the lower right side of abdomen according to a previous method. (See, e.g., Reference 64). 17 hours later, the mice were sacrificed and their tissues were collected and imaged.
FIGS. 13A-13C show exemplary images that illustrate imaging de novo biosynthesis in various mouse organs. […] Lipid-rich sebaceous glands and adipose tissues were harvested from adult mice that drank 25% D2O for 8 and 15 days, respectively. Myelinated axon fibers of internal capsule were harvested from P11 mouse pups that were fed on milk produced by mother mice drinking 25% D2O for 6 days before imaging. […] Tissues were harvested, fixed, and imaged 17 hours after the injection. […] Scale bar=[…].

HeLa cells [1] = test: SRS imaging of lipid droplets in HeLa cells, D-labeled fatty acids versus D2O; format: cell-based; conditions: for CDL signal distribution, lipid droplets: 10 μM D-labeled fatty acid, 6 hours
Protocol: For live-cell imaging, HeLa and COS-7 cells were seeded onto a glass-bottom dish (e.g., MatTek) and grown for 6 to 8 hours in regular DMEM before the medium was changed to DMEM containing 70% D2O. Cells were then grown for different periods of time before being placed onto the stage for SRS imaging. When treating cells with D-labeled fatty acids, they were first reacted with sodium hydroxide and then coupled to bovine serum albumin (“BSA”) in about 2:1 molar ratio to make 2 mM stock solution. Those stock solutions were then added to the medium to reach the final working concentration (e.g., 10 μM).
FIGS. 4A-4E illustrate the exemplary DO-SRS visualizes de novo lipogenesis in cultured cells and in C. elegans. […] The number of lipid droplets formed in the three conditions were quantified (mean±s.d.; N=5 for D-OA, 15 for D-PA, and 8 for D2O; double asterisks indicate p<0.01 in an unpaired t-test). CHL signal for D2O treatment confirmed the presence of few lipid droplets. […] Live bacteria were labeled by deuterium (element 405), and killed bacteria were not labeled (element 410). […] E. coli OP50 were seeded onto the D2O plates 24 hours before the experiments. Scale bar=20 μm. […] CDL mean intensity was plotted. For all C. elegans experiments, at least 8 animals were imaged for each condition to calculate mean intensity; mean±s.d. of the mean intensity was shown.

endoplasmic reticulum = conditions: approximately 200 μM; cited from earlier work
HeLa cells [2] = test: Raman spectra of D2O-treated HeLa cells with protein or lipid synthesis inhibitors; format: cell-based; conditions: 24 hours
Protocol: For inhibitor treatments, cells were first grown in glass bottom dishes with DMEM made of H2O overnight, and then the medium was changed to 70% D2O DMEM containing either 10 nM fatty acid synthase inhibitor TVB-3166 (e.g., Sigma CAS 1533438-83-3) or 1 μM protein synthesis inhibitor anisomycin (e.g., Sigma CAS 22862-76-6). Cells were then cultured for 24 hours, imaged by SRS microscopy, and fixed by 4% paraformaldehyde for spontaneous Raman spectroscopy.
Cells grown in DMEM made of 100% H2O were used as control.

HeLa cells [3] = test: CellTiter-Glo Luminescent Cell Viability Assay, cellular toxicity of D2O; format: cell-based; conditions: medium containing D2O
Protocol: To determine cellular toxicity, HeLa cells and COS-7 cells were first seeded in […] plates at about 500 per cm^2 and grown overnight; the culture was then changed to DMEM containing different concentration (e.g., 0% to 100%) of D2O for about 48 hours. The viability of cell was accessed using the CellTiter-Glo® Luminescent Cell Viability Assay (e.g., Promega) according to the manufacturer's protocol. Cells cultured in pure DMEM medium were used as control and wells containing only medium without cells for background luminescence. Viability was calculated using the background-corrected […] as follows: Viability (%)=Absorbance of experiment well/Absorbance of control well×100%. Three replicates were performed.
(§1) FIGS. 10A-10E show exemplary graphs and images that illustrate toxicity of D2O on cells and C. elegans. […] Three replicates were performed. Mean and s.d. were shown. […] D-labeled OP50 refers to overnight grown culture of E. coli OP50 that were seeded onto the D2O-containing NGM plates 24 hours before the experiment; non-labeled OP50 refers to the experimental setup, in which bacteria were killed by UV after being placed onto the D2O plates and thus was not labeled by deuterium. Each group has 50 worms, and three replicates were made. Mean and s.d. were shown.

[4] = in vivo; cited from earlier work
C. elegans = test: Toxicity of D2O on C. elegans (lethality, sterility, brood size, gonad development); format: in vivo
Protocol: C. elegans wild type (e.g., N2) and mutant strains were maintained at 20° C. using nematode growth media (“NGM”) and E. coli strain OP50 as a food source. (See. e.g., Reference 61). Different concentrations of D2O were added to replace H2O in NGM. E. coli OP50 were seeded on D2O-containing NGM plates and grown for 24 hours; worms were then placed at different ages onto those plates for various amount of time. To determine the toxicity of D2O, eggs were prepared using hypochlorite, which made the eggshell porous and permeable to D2O, placed them onto plates containing different concentration of D2O, and counted the number of eggs that could not hatch into normal moving larva. Fourth stage larva were placed onto those plates and counted how many animals became sterile and determined the brood size by counting the total number of hatch larvae from the all the eggs laid by one animal. Three replicates were performed.
as §1
50 worms were used for each treatment, and […] replicates were made. Mean and s.d. were shown. […] Scale bar=20 μm.

[5] = mouse, in vivo; cited from earlier work

[2H]C([2H])([2H])C([2H])([2H])C([2H])([2H])C([2H])([2H])C([2H])([2H])C([2H])([2H])C([2H])([2H])C([2H])([2H])C([2H])([2H])C([2H])([2H])C([2H])([2H])C([2H])([2H])C([2H])([2H])C([2H])([2H])C([2H])([2H])C(=O)O [D-PA, D31-palmitic acids]
CDL signal in pancreas (mice): accumulation of CDL signal in the ER membrane of pancreatic cells
CDL signal distribution, lipid droplets (HeLa cells [1]): accumulation of CDL signal in lipid droplets

CCCCCCCC/C=C\CCCCCCCC(=O)O [OA, oleic acid]
effect on endoplasmic reticulum membrane (endoplasmic reticulum): not

[2H]OC(=O)C([2H])([2H])C([2H])([2H])C([2H])([2H])C([2H])([2H])C([2H])([2H])C([2H])([2H])C([2H])([2H])/C([2H])=C(/[2H])C([2H])([2H])C([2H])([2H])C([2H])([2H])C([2H])([2H])C([2H])([2H])C([2H])([2H])C([2H])([2H])C([2H])([2H])[2H] [D-OA, D34-oleic acids]
number of lipid droplets, comparison (HeLa cells [1]; 10 μM): remarkably more lipid droplets than D-PA
CDL signal distribution, lipid droplets (HeLa cells [1]): accumulation of CDL signal in lipid droplets

TVB-3166
peak of remaining C-D Raman signal (HeLa cells [2]; 10 nM TVB-3166, 70% D2O DMEM, remaining D-labeled protein signal): 2185 cm⁻¹

[2H]O[2H] [D2O, deuterium oxide]
D2O concentration above which toxicity arises (HeLa cells [3]): exceeded 80%
adverse symptoms [4]: does not cause any adverse symptoms
body water enrichment [4]: approximately 2%
gonad development (C. elegans; 60% D2O, animals developed from L4 to adults on D2O plates): gonad developed normally
gonad development (C. elegans; 80% D2O): gonad development was disrupted
proliferation of the germ cells (C. elegans; 80% D2O): appeared to be affected
D2O concentration with no observable toxicity and no effect on cell division (C. elegans; C. elegans): < 60%
embryo formation (C. elegans; in vivo): normal embryos were formed
embryo formation in the uterus (C. elegans; in vivo): no embryos were formed
D2O enrichment that did not cause any effect on physiological processes [5]: below 20%
lipid droplets in CDL and CHL channels (HeLa cells [1]; 70% D2O, 24 hours): very few lipid droplets

CCCCCCCCCCCCCCCC(=O)O [PA, palmitic acid]
effect on endoplasmic reticulum membrane (endoplasmic reticulum): drove the formation of solid-like microdomain and membrane phase separation in endoplasmic reticulum

COc1ccc(C[C@H]2NC[C@H](O)[C@H]2OC(C)=O)cc1 [anisomycin]
peak of remaining C-D Raman signal (HeLa cells [2]; 1 μM anisomycin, 70% D2O DMEM, remaining D-labeled lipid signal): 2135 cm⁻¹
